Test results: the NIST ThermoML archive (doi:10.1021/je049895b)
Where “and” joins values, the source holds several entries; their conditions need not be identical. Equal entries are not always repeated. Numbers after ± are expanded uncertainties.

What was measured:
[1] = 101.33 kPa, Liquid; for viscosity: Capillary tube (Ostwald / Ubbelohde) method
[2] = xn = mol fraction of the nth substance listed; details: 101.33 kPa, Liquid; for viscosity: Capillary tube (Ostwald / Ubbelohde) method

Structure (SMILES) | mass density ([1]; 293.15 K) [kg/m3] | speed of sound ([1]; 293.15 K) | viscosity ([1]; 293.15 K) [mPa·s] | mass density ([1]; 298.15 K) [kg/m3] | speed of sound ([1]; 298.15 K) [m/s] | viscosity ([1]; 298.15 K) [mPa·s] | mass density ([1]; 303.15 K) [kg/m3] | speed of sound ([1]; 303.15 K) | viscosity ([1]; 303.15 K) [mPa·s] | mass density ([1]; 308.15 K) [kg/m3] | speed of sound ([1]; 308.15 K) [m/s] | viscosity ([1]; 308.15 K) [mPa·s] | mass density ([1]; 313.15 K) [kg/m3] | speed of sound ([1]; 313.15 K) [m/s] | viscosity ([1]; 313.15 K) [mPa·s] | other results
C1CCCC1 [cyclopentane] | 744.43 ± 0.51 | 1232 ± 2 m/s | 0.438 ± 0.02 | 739.47 ± 0.51 | 1206 ± 2 | 0.415 ± 0.02 | 734.47 ± 0.51 | 1180 ± 2 m/s | 0.394 ± 0.02 | 729.42 ± 0.51 | 1154 ± 2 | 0.374 ± 0.02 | 724.32 ± 0.51 | 1129 ± 2 | 0.355 ± 0.02 | 
CCOC(=O)OCC [diethyl carbonate] | 974.8 ± 0.27 | 1197 ± 2 m/s and 1198 ± 2 m/s | 0.809 ± 0.021 | 969.21 ± 0.27 | 1177 ± 2 | 0.75 ± 0.021 | 963.58 ± 0.27 | 1156 ± 2 m/s and 1157 ± 2 m/s | 0.702 ± 0.021 | 957.93 ± 0.28 | 1136 ± 2 | 0.658 ± 0.02 | 952.26 ± 0.28 | 1116 ± 2 | 0.618 ± 0.02 | 
CCOC(=O)OCC [diethyl carbonate] + C1CCCC1 |  |  |  |  |  |  |  |  |  |  |  |  |  |  |  | viscosity ([2]; 293.15 K, x1 = 1): 0.809 ± 0.021 mPa·s; mass density ([2]; 293.15 K, x1 = 1): 974.8 ± 0.27 kg/m3; speed of sound ([2]; 293.15 K, x1 = 1): 1197 ± 2 m/s; viscosity ([2]; 298.15 K, x1 = 1): 0.75 ± 0.021 mPa·s; mass density ([2]; 298.15 K, x1 = 1): 969.21 ± 0.27 kg/m3; speed of sound ([2]; 298.15 K, x1 = 1): 1177 ± 2 m/s; viscosity ([2]; 303.15 K, x1 = 1): 0.702 ± 0.021 mPa·s; mass density ([2]; 303.15 K, x1 = 1): 963.58 ± 0.27 kg/m3; speed of sound ([2]; 303.15 K, x1 = 1): 1156 ± 2 m/s; viscosity ([2]; 308.15 K, x1 = 1): 0.658 ± 0.02 mPa·s; mass density ([2]; 308.15 K, x1 = 1): 957.93 ± 0.28 kg/m3; speed of sound ([2]; 308.15 K, x1 = 1): 1136 ± 2 m/s; viscosity ([2]; 313.15 K, x1 = 1): 0.618 ± 0.02 mPa·s; mass density ([2]; 313.15 K, x1 = 1): 952.26 ± 0.28 kg/m3; speed of sound ([2]; 313.15 K, x1 = 1): 1116 ± 2 m/s
COC(=O)OC [dimethyl carbonate] | 1069.9 ± 0.56 | 1220 ± 2 m/s | 0.623 ± 0.021 | 1063.33 ± 0.56 | 1198 ± 2 | 0.584 ± 0.021 | 1056.71 ± 0.55 | 1177 ± 2 m/s | 0.549 ± 0.02 | 1050.07 ± 0.55 | 1155 ± 2 | 0.517 ± 0.02 | 1043.39 ± 0.54 | 1134 ± 2 | 0.488 ± 0.02 | 
COC(=O)OC [dimethyl carbonate] + C1CCCC1 |  |  |  |  |  |  |  |  |  |  |  |  |  |  |  | viscosity ([2]; 293.15 K, x1 = 1): 0.623 ± 0.021 mPa·s; mass density ([2]; 293.15 K, x1 = 1): 1069.9 ± 0.56 kg/m3; speed of sound ([2]; 293.15 K, x1 = 1): 1220 ± 2 m/s; viscosity ([2]; 298.15 K, x1 = 1): 0.584 ± 0.021 mPa·s; mass density ([2]; 298.15 K, x1 = 1): 1063.33 ± 0.56 kg/m3; speed of sound ([2]; 298.15 K, x1 = 1): 1198 ± 2 m/s; viscosity ([2]; 303.15 K, x1 = 1): 0.549 ± 0.02 mPa·s; mass density ([2]; 303.15 K, x1 = 1): 1056.71 ± 0.55 kg/m3; speed of sound ([2]; 303.15 K, x1 = 1): 1177 ± 2 m/s; viscosity ([2]; 308.15 K, x1 = 1): 0.517 ± 0.02 mPa·s; mass density ([2]; 308.15 K, x1 = 1): 1050.07 ± 0.55 kg/m3; speed of sound ([2]; 308.15 K, x1 = 1): 1155 ± 2 m/s; viscosity ([2]; 313.15 K, x1 = 1): 0.488 ± 0.02 mPa·s; mass density ([2]; 313.15 K, x1 = 1): 1043.39 ± 0.54 kg/m3; speed of sound ([2]; 313.15 K, x1 = 1): 1134 ± 2 m/s
CC1CCCCC1 [methylcyclohexane] |  | 1237 ± 2 m/s | 0.729 ± 0.021 |  | 1215 ± 2 | 0.681 ± 0.021 |  | 1193 ± 2 m/s | 0.637 ± 0.021 |  | 1172 ± 2 | 0.598 ± 0.021 |  | 1150 ± 2 | 0.562 ± 0.021 | 
CC1CCCCC1 [methylcyclohexane] + CCOC(=O)OCC |  |  |  |  |  |  |  |  |  |  |  |  |  |  |  | viscosity ([2]; 293.15 K, x2 = 0): 0.729 ± 0.021 mPa·s; speed of sound ([2]; 293.15 K, x2 = 0): 1237 ± 2 m/s; viscosity ([2]; 298.15 K, x2 = 0): 0.681 ± 0.021 mPa·s; speed of sound ([2]; 298.15 K, x2 = 0): 1215 ± 2 m/s; viscosity ([2]; 303.15 K, x2 = 0): 0.637 ± 0.021 mPa·s; speed of sound ([2]; 303.15 K, x2 = 0): 1193 ± 2 m/s; viscosity ([2]; 308.15 K, x2 = 0): 0.598 ± 0.021 mPa·s; speed of sound ([2]; 308.15 K, x2 = 0): 1172 ± 2 m/s; viscosity ([2]; 313.15 K, x2 = 0): 0.562 ± 0.021 mPa·s; speed of sound ([2]; 313.15 K, x2 = 0): 1150 ± 2 m/s
